# Where a name gives a salt, the structure may show the parent alone.
# Assays:
# [1] = tested on: Rat spinal motor neurones; assay: Neuronal survival and neurite outgrowth in spinal motor neurones; assay type: cell-based; settings: 3 days
# Description: Rat spinal motor neurones were prepared according to a previously described method (Martinou et al, Neuron, 8, 737-744, 1992). Following 3 days of culturing with sarsasapogenin, smilagenin, vehicle (DMSO, 0.25%), Xaliproden, or BDNF, spinal cord motor neurones were washed twice in PBS, fixed in a cold solution of alcohol (95%) and acetic acid (5%) for 5 min and then rinsed 3 times in PBS. Neurones were stained using a monoclonal antibody anti β-tubulin and an anti mouse Immunoglobulin G. These antibodies stained neurone cell bodies (quantifying the neuroprotective effect) and neurites (quantifying the neurotrophic effect). The cell nuclei were stained by a fluorescent marker. After 1 h of incubation, cells were washed 3 times in PBS. […] A series of pictures were taken using a camera controlled by computer software. All the images were taken under the same conditions. Analyses of the number of cells labelled with anti β-tubulin antibodies and of the total number of cells (number of stained nuclei) were performed using LUCIA 6.0 software.
# [2] = tested on: pmn mice; settings: cited from earlier work
# [3] = tested on: rat primary cortical neurones; assay: Pre-treatment against glutamate-induced damage (LDH) in cortical neurones; assay type: cell-based; settings: for Neuronal survival (% of control): 24 h before and 24 h after glutamate 100 μM 10 min; for Toxicity at the plateau of activity: nanomolar concentration, cortical neurones in vitro
# Description: Exposure of rat primary cortical neurones to glutamate increases lactate dehydrogenase (LDH) activity measured 24 h after glutamate exposure, indicating significant neuronal damage. Rat cortical neurones were cultured by modification of a method previously described (Singer, et al., Neuroscience Letters, 1996, 212, pp. 13-16). On day 10 of culture, the medium was changed to a serum-free defined medium. On day 12, the cultures were washed and placed for 24 h in fresh medium containing test compound or vehicle (DMSO, 0.25%). On day 13 neurones were exposed to glutamate (100 μM; 10 min) at 37° C. The cultures were then washed with, and placed in, fresh medium supplemented with test compound or vehicle for a further 24 h before LDH was measured. Neuronal damage was assessed by measuring LDH activity in the media at 24 h after glutamate exposure.
# [4] = tested on: Rat dopaminergic neurones; assay: Pre-treatment against MPP+-induced loss of dopaminergic neurones; assay type: cell-based; settings: 30 nM, 24 h before and during MPP+ 2 μM 48 h
# Description: Rat dopaminergic neurones were cultured as previously described (Schinelli et al., Journal of Neurochemistry, 1988, 50, pp. 1900-1907). On day 5, the cultures were washed and placed in fresh medium containing test compounds (30 nM), vehicle (DMSO, 0.25%) or a combination of BDNF (1.85 nM) and GDNF (0.17 nM) for 24 h.
# Exposure of rat primary dopaminergic neurones to MPP^+ (2 μM, 24 h) causes a significant decrease in the number of dopaminergic neurones compared to the control. On day 6, MPP^+ (2 μM) was added to the cultures in the presence of test compounds, vehicle or a combination of BDNF and GDNF for a further 48 h. MPP^+ induces neuronal death, via inhibition of complex I in the mitochondria and consequent ATP depletion, resulting in the production of free radicals and induction of apoptosis. After the incubation period, the cultures were fixed with paraformaldehyde in PBS (4%). After fixation, the neurones were permeabilised with Triton ×100 (0.05%) for 30 min. The neurones were then incubated with anti-tyrosine hydroxylase (TH) at 37° C. for 2 h. The neurones were washed three times with PBS, and then incubated with goat anti mouse/Cy3 for 2 h at 37° C. The neurones were mounted and examined with the fluorescence microscopy.
# [5] = tested on: Rat cortical neurones; assay: Neuritogenesis in cortical neurones; assay type: cell-based; settings: 3 nM, 24 h; for Neurones displaying neurites (%): control 39.35 ± 2.06
# Description: Rat cortical neurones were cultured by modification of a previously described method (Singer, et al., Neuroscience Letters, 1996, 212, pp. 13-16). Cells were cultured with sarsasapogenin, smilagenin, vehicle (DMSO 0.25%), GDNF, BDNF or NGF for 24 h. For each group, 15 pictures showing neurones displaying neurites were selected at random in each field, and for each neurone the longest neurite was measured. The neurite number was measured by counting the number of neurones displaying neurites, the number of neurones not displaying neurites and the number of total neurones in each field. Six fields per well were examined.
# The results are shown in Table 15 below, expressed as the number of neurones with neurites per field as a percentage of the total number of neurones per field.
# [6] = tested on: Rat sensory neurones; assay: Neuronal survival in sensory neurones; assay type: cell-based, Wistar rat; settings: 0.2 nM, 2 days
# Description: Rat sensory neurones were obtained from Wistar rat embryos on the 15th day of gestation. Cells were cultured at 37° C. in 5% CO2/95% air atmosphere. Following 2 days of culturing with sarsasapogenin, smilagenin, vehicle (DMSO, 0.25%) or NGF, sensory neurones were rinsed twice with PBS and fixed in paraformaldehyde (4%) in PBS for 30 min at 4° C. Cells were permeabilised with Triton X-100 (0.1%) and non-specific sites were saturated using foetal bovine serum. Prior to staining, cells were incubated for 2 h at room temperature with a mixture of primary antibodies: anti-neurofilament 68 and 200 in PBS containing foetal bovine serum 5%. Prior to washing, slides were demounted and the cells were washed twice with PBS for 5 min, placed in a dark room for 1 h and incubated with a secondary antibody: anti-mouse coupled with cyanine 3 (Cy3; 1/1600) and an anti-rabbit coupled with fluoroisothiocyanate (FITC; 1/200) in PBS containing foetal bovine serum (5%). Slides were washed twice with PBS for 5 min and mounted on coverslips using Mowiol, an antioxidative solution (9% w/v) in glycerol (22%) buffered with Tris/HCl ([…]; pH 8.5). Slides were left overnight at room temperature to harden and stored in light protected conditions. Slides were viewed using a DAPI/FITC/Cy3 triple filter microscope with a ×20 objective. A series of photographs per well were taken at random using a digital camera.
Molecule,Neuronal survival (% of control) ([3]; 3 nM),Neuronal survival (% of control) ([3]; 10 nM),Neuronal survival (% of control) ([3]; 30 nM),Neuronal survival (% of control) ([3]; 100 nM),Toxicity at the plateau of activity [3],Neuronal survival (% of control) [4],Neurite length (% of control) [5],Neurones displaying neurites (%) [5],also measured
"FC(F)(F)c1cccc(C2=CCN(CCc3ccc4ccccc4c3)CC2)c1 [Xaliproden, 1-[2-(naphth-2-yl)ethyl]-4-(3-trifluoromethylphenyl)-1,2,5,6-tetra-hydropyri-dine hydrochloride, reference compound]",,,,,,,,,"Neurite outgrowth (% of control) ([1]; 30 nM): 137.57 ± 11.69 % of control; Neuronal survival (% of control) ([1]; 30 nM): 110.95 ± 2.14 % of control; Neurite outgrowth (% of control) ([1]; 100 nM): 137.55 ± 6.76 % of control; Neuronal survival (% of control) ([1]; 100 nM): 111.18 ± 2.85 % of control; Neurite outgrowth (% of control) ([1]; 300 nM): 131.22 ± 7.93 % of control; Neuronal survival (% of control) ([1]; 300 nM): 109.47 ± 3.34 % of control; Increase of survival time / lifespan of pmn mice ([2]; literature, CNTF i.p. CNTF-secreting cells, Xaliproden oral from birth, CGP 3466B oral at onset): ~50%"
C[C@H]1CC[C@@]2(OC1)O[C@H]1C[C@H]3[C@@H]4CC[C@@H]5C[C@H](O)CC[C@]5(C)[C@H]4CC[C@]3(C)[C@H]1[C@@H]2C [episarsasapogenin],80.39 ± 5.18 % of control,83.80 ± 4.18 % of control,87.17 ± 2.51 % of control,86.42 ± 2.95 % of control,without causing any toxicity,95.01 ± 4.52 % of control,,,Neuronal survival (% of control) ([3]; 1 nM): 84.79 ± 2.40 % of control
C[C@@H]1CC[C@@]2(OC1)O[C@H]1C[C@H]3[C@@H]4CC[C@@H]5C[C@H](O)CC[C@]5(C)[C@H]4CC[C@]3(C)[C@H]1[C@@H]2C [epismilagenin],82.49 ± 3.93 % of control,78.57 ± 2.15 % of control,81.76 ± 2.09 % of control,78.39 ± 1.75 % of control,without causing any toxicity,115.12 ± 4.73 % of control,,,Neuronal survival (% of control) ([3]; 300 nM): 78.86 ± 1.80 % of control
NGF: nerve growth factor,,,,,,,145.73 ± 5.13 % of control,52.59 ± 2.43 %,Neuronal survival (% of control) [6]: 151.50 ± 7.19 % of control
"GDNF: glial-derived neurotrophic factor (protein, UniProt P39905 78-211, looked up) Glial cell line-derived …: SPDKQMAVLPRRERNRQAAAANPENSRGKGRRGQRGKNRGCVLTAIHLNVTDLGLGYETKEELIFRYCSGSCDAAETTYDKILKNLSRNRRLVSDKVGQACCRPIAFDDDLSFLDDNLVYHILRKHSAKRCGCI",,,,,,,125.30 ± 4.18 % of control,55.72 ± 1.98 %,Motor neurone survival and disease course in pmn mice ([2]; literature (Sagot et al. 1996)): improved the motor neurone survival but did not slow down the disease
